Experiment: Accelerated stability study of pranoprofen batches (impurity content by HPLC)
Format: physicochemical
Conditions: 40° C.±2° C., RH 75%±5%; for Maximum single impurity: maximum unknown single impurity
Method: In the present invention, unless otherwise specified, the accelerated experiment is carried out under the conditions of 40° C.±2° C. and RH75%±5% in accordance with the regulations in the “Technical Guidelines for Stability Research of Chemical Drugs”; preferably, an average value of 3 samples measured in parallel is taken.
In the present invention, unless otherwise specified, the content of each impurity or total impurities is measured by high performance liquid chromatography. Preferably, the chromatographic conditions comprise: using octadecylsilane-bonded silica gel as filler (5 μm, 250 mm×4.6 mm); using 0.05 mol/L sodium perchlorate aqueous solution-methanol (90:10, adding perchloric acid to adjust pH to 3.2) as mobile phase A, methanol as mobile phase B, following the gradient elution in Table 10, flow rate of 1.0 ml/min, column temperature of 40° C., detection wavelength of 275 nm.
In accordance with the relevant regulations in the “Technical Guidelines for Stability Research of Chemical Drugs”, the samples of the above three batches were taken and tested for 6 months under the conditions of 40° C.±2° C. and RH 75%±5%. And at the end of the 0th, 1st, 2nd, 3rd and 6th months of the experiment, the samples were taken for the detection of indicators.
The experiment was carried out according to the high performance liquid chromatography (the General Rule 0512 of the Chinese Pharmacopoeia, 2015 edition), in which octadecylsilane bonded silica gel was used as filler (5 μm, 250 mm×4.6 mm); 0.05 mol/L sodium perchlorate aqueous solution-methanol (90:10, adjusted to pH 3.2 by adding perchloric acid) was used as mobile phase A, methanol was used as mobile phase B, and gradient elution was carried out according to the table below, flow rate was 1.0 ml/min, column temperature was 40° C., and detection wavelength was 275 nm.
10 μl of the test solution was precisely taken and injected into the liquid chromatograph. If there were impurity peaks in the chromatogram of the test solution, a single impurity must not exceed 0.1%, and the sum of impurities must not exceed 0.5%.
The impurity objects to be detected were total impurity, impurity A, impurity C, impurity D, impurity L and maximum single impurity; and the detection conditions were the same as above.
Preparation of test solution: 50 mg of this product was taken, dissolved in a solvent (acetonitrile-water=1:1) and diluted to 50 ml to obtain the test solution.
Control stock solution of mixed impurities: 10.0 mg of each of impurities A, C, D, and L were weighed, respectively, and added to 10.0 ml volumetric flask, respectively, then added with methanol for dissolution and dilution to the mark, 1.0 ml of each of the above solutions was taken and added to 100.0 ml volumetric flask, then added with solvent for dilution to the mark to obtain the control stock solution of impurities.
Control solution of mixed impurities: 1.0 ml of the test solution was accurately taken, and added with solvent for dilution to 100.0 ml; 1.0 ml of the above solution was accurately taken, added with 1.0 ml of the control stock solution of mixed impurities, and added with solvent to 10.0 ml to obtain the control solution of mixed impurities.
Preparation of system suitability solution: 1.0 ml of the control stock solution of mixed impurities was accurately taken, and added with the test solution for dilution to 10 ml to obtain the system suitability solution.
Preparation of control solution: 1.0 ml of the test solution was taken, and added with solvent for dilution to 10.0 ml; 1.0 ml of the above solution was taken, and added with solvent for dilution to 100.0 ml to obtain the control solution.

Compound	Impurity A (0th month)	Impurity D (0th month)	Impurity L (0th month)	Total impurities (0th month)	Impurity A (1st month after acceleration)	Impurity D (1st month after acceleration)	Impurity L (1st month after acceleration)	Total impurities (1st month after acceleration)	Impurity A (2nd month after acceleration)	Impurity D (2nd month after acceleration)	Impurity L (2nd month after acceleration)	Total impurities (2nd month after acceleration)	Impurity A (3rd month after acceleration)	Impurity D (3rd month after acceleration)	Impurity L (3rd month after acceleration)	Total impurities (3rd month after acceleration)	Impurity A (6th month after acceleration)	Impurity C (6th month after acceleration)	Impurity D (6th month after acceleration)	Impurity L (6th month after acceleration)	further results
CC(C(=O)O)c1ccc2c(c1)Cc1cccnc1O2 (stereo not drawn) [Compound 20190101, pranoprofen]	Impurity A: 0.05%	Impurity D: 0.02%	Impurity L: 0.02%	Total impurities: 0.09%	Impurity A: 0.03%	Impurity D: 0.02%	Impurity L: 0.01%	Total impurities: 0.06%	Impurity A: 0.04%	Impurity D: 0.02%	Impurity L: 0.01%	Total impurities: 0.07%	Impurity A: 0.06%	Impurity D: 0.01%	Impurity L: 0.02%	Total impurities: 0.08%	Impurity A: 0.06%	Impurity C 0.03%	Impurity D: 0.02%	Impurity L: 0.02%	Total impurities (6th month after acceleration): Total impurities: 0.17%; Maximum single impurity (6th month after acceleration): impurity: 0.02%
CC(C(=O)O)c1ccc2c(c1)Cc1cccnc1O2 (stereo not drawn) [Compound 20190201, pranoprofen]	Impurity A: 0.07%	Impurity D: 0.02%	Impurity L: 0.01%	Total impurities: 0.10%	Impurity A: 0.07%	Impurity D: 0.03%	Impurity L: 0.01%	Total impurities: 0.11%	Impurity A: 0.07%	Impurity D: 0.02%	Impurity L: 0.01%	Total impurities: 0.10%	Impurity A: 0.07%	Impurity D: 0.02%	Impurity L: 0.02%	Total impurities: 0.11%	Impurity A: 0.10%	Impurity C 0.03%	Impurity D: 0.01%	Impurity L: 0.02%	Total impurities (6th month after acceleration): Total impurities: 0.24%; Maximum single impurity (6th month after acceleration): impurity: 0.08%
CC(C(=O)O)c1ccc2c(c1)Cc1cccnc1O2 (stereo not drawn) [Compound 20190202, pranoprofen]	Impurity A: 0.02%	Impurity D: 0.02%	Impurity L: 0.01%	Total impurities: 0.05%	Impurity A: 0.05%	Impurity D: 0.01%	Impurity L: 0.02%	Total impurities: 0.06%	Impurity A: 0.04%	Impurity D: 0.02%	Impurity L: 0.01%	Total impurities: 0.07%	Impurity A: 0.04%	Impurity D: 0.02%	Impurity L: 0.01%	Total impurities: 0.07%	Impurity A: 0.09%	Impurity C 0.01%	Impurity D: 0.01%	Impurity L: 0.02%	Total impurities (6th month after acceleration): Total impurities: 0.15%; Maximum single impurity (6th month after acceleration): impurity: 0.02%

Source: US20240343738A1, “Method for preparing pranoprofen and composition comprising pranoprofen and impurity” (SHENYANG XINGQI PHARMACEUTICAL CO., LTD., priority 2021, published 2024)
